According to ChEMBL document CHEMBL1201862, “PubChem BioAssay data set” (2004):
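Test compounds were applied to cells in 96-well plates for 48 hours at 5 doses. At the GI50, growth is halved.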 Active and inactive are the calls of the source. No stated cut-off is given here; in the data, active = GI50 up to about 1.1 µM and inactive = higher.

Tests used:
Assay in all cases: DTP human tumour cell line panel, 48 h
NCI-H23 = tested on: NCI-H23
IGROV-1 = tested on: IGROV-1
ACHN = tested on: ACHN
RPMI-8226 = tested on: RPMI-8226
U-251 = tested on: U-251
HT-29 = tested on: HT-29
UO-31 = tested on: UO-31
EKVX = tested on: EKVX
CCRF-CEM = tested on: CCRF-CEM
RXF 393 = tested on: RXF 393
NCI/ADR-RES = tested on: NCI/ADR-RES
NCI-H522 = tested on: NCI-H522
SK-MEL-2 = tested on: SK-MEL-2
SF-539 = tested on: SF-539
LOX IMVI = tested on: LOX IMVI
HOP-92 = tested on: HOP-92
OVCAR-5 = tested on: OVCAR-5
SR = tested on: SR
DU-145 = tested on: DU-145
SF-268 = tested on: SF-268
HCT-116 = tested on: HCT-116
SF-295 = tested on: SF-295
MDA-MB-231 = tested on: MDA-MB-231
SK-MEL-5 = tested on: SK-MEL-5
MOLT-4 = tested on: MOLT-4
NCI-H226 = tested on: NCI-H226
NCI-H460 = tested on: NCI-H460
M14 = tested on: M14
A549 = tested on: A549
SK-OV-3 = tested on: SK-OV-3
A498 = tested on: A498
MDA-N = tested on: MDA-N
MCF7 = tested on: MCF7
CAKI-1 = tested on: CAKI-1
T47D = tested on: T47D
K562 = tested on: K562
SW-620 = tested on: SW-620
786-0 = tested on: 786-0
SNB-19 = tested on: SNB-19
Malme-3M = tested on: Malme-3M
OVCAR-4 = tested on: OVCAR-4
UACC-62 = tested on: UACC-62
SNB-75 = tested on: SNB-75
COLO 205 = tested on: COLO 205
TK-10 = tested on: TK-10
KM12 = tested on: KM12
MDA-MB-435 = tested on: MDA-MB-435
SK-MEL-28 = tested on: SK-MEL-28
OVCAR-8 = tested on: OVCAR-8
HOP-62 = tested on: HOP-62
HL-60 = tested on: HL-60
BT-549 = tested on: BT-549
SN12C = tested on: SN12C
PC-3 = tested on: PC-3
HCT-15 = tested on: HCT-15
Hs-578T = tested on: Hs-578T
OVCAR-3 = tested on: OVCAR-3
UACC-257 = tested on: UACC-257

OCCCNCc1ccncc1
GI50 (NCI-H23): > 100 µM (inactive) | GI50 (IGROV-1): > 100 µM (inactive) | GI50 (ACHN): > 100 µM (inactive) | GI50 (RPMI-8226): > 100 µM (inactive) | GI50 (U-251): > 100 µM (inactive) | GI50 (HT-29): > 100 µM (inactive) | GI50 (UO-31): > 100 µM (inactive) | GI50 (EKVX): > 100 µM (inactive) | GI50 (CCRF-CEM): > 100 µM (inactive) | GI50 (RXF 393): > 100 µM (inactive) | GI50 (NCI/ADR-RES): > 100 µM (inactive) | GI50 (NCI-H522): > 100 µM (inactive) | GI50 (SK-MEL-2): > 100 µM (inactive) | GI50 (SF-539): > 100 µM (inactive) | GI50 (LOX IMVI): > 100 µM (inactive) | GI50 (HOP-92): > 100 µM (inactive) | GI50 (OVCAR-5): > 100 µM (inactive) | GI50 (SR): > 100 µM (inactive) | GI50 (DU-145): > 100 µM (inactive) | GI50 (SF-268): > 100 µM (inactive) | GI50 (HCT-116): > 100 µM (inactive) | GI50 (SF-295): > 100 µM (inactive) | GI50 (MDA-MB-231): > 100 µM (inactive) | GI50 (SK-MEL-5): > 100 µM (inactive) | GI50 (MOLT-4): > 100 µM (inactive) | GI50 (NCI-H226): > 100 µM (inactive) | GI50 (NCI-H460): > 100 µM (inactive) | GI50 (M14): > 100 µM (inactive) | GI50 (A549): > 100 µM (inactive) | GI50 (SK-OV-3): > 100 µM (inactive) | GI50 (A498): > 100 µM (inactive) | GI50 (MDA-N): > 100 µM (inactive) | GI50 (MCF7): > 100 µM (inactive) | GI50 (CAKI-1): > 100 µM (inactive) | GI50 (T47D): > 100 µM (inactive) | GI50 (K562): > 100 µM (inactive) | GI50 (SW-620): > 100 µM (inactive) | GI50 (786-0): > 100 µM (inactive) | GI50 (SNB-19): > 100 µM (inactive) | GI50 (Malme-3M): > 100 µM (inactive) | GI50 (OVCAR-4): > 100 µM (inactive) | GI50 (UACC-62): > 100 µM (inactive) | GI50 (SNB-75): > 100 µM (inactive) | GI50 (COLO 205): > 100 µM (inactive) | GI50 (TK-10): > 100 µM (inactive) | GI50 (KM12): > 100 µM (inactive) | GI50 (MDA-MB-435): > 100 µM (inactive) | GI50 (SK-MEL-28): > 100 µM (inactive) | GI50 (OVCAR-8): > 100 µM (inactive) | GI50 (HOP-62): > 100 µM (inactive) | GI50 (HL-60): > 100 µM (inactive) | GI50 (BT-549): > 100 µM (inactive) | GI50 (SN12C): > 100 µM (inactive) | GI50 (PC-3): > 100 µM (inactive) | GI50 (HCT-15): > 100 µM | GI50 (Hs-578T): > 100 µM (inactive) | GI50 (OVCAR-3): > 100 µM (inactive)

O=P(O)(O)CN1CCNCCN(CP(=O)(O)O)CCN(CP(=O)(O)O)CCNCC1
GI50 (NCI-H23): > 100000 µM (inactive) | GI50 (IGROV-1): 65900 µM (inactive) | GI50 (UACC-257): > 100 µM (inactive) | GI50 (ACHN): > 100 µM (inactive) | GI50 (RPMI-8226): > 100 µM (inactive) | GI50 (U-251): > 100 µM (inactive) | GI50 (HT-29): 31.3 µM (inactive) | GI50 (UO-31): > 100 µM (inactive) | GI50 (EKVX): > 100 µM (inactive) | GI50 (CCRF-CEM): > 100 µM (inactive) | GI50 (RXF 393): > 100000 µM (inactive) | GI50 (NCI/ADR-RES): > 100 µM (inactive) | GI50 (NCI-H522): > 100 µM (inactive) | GI50 (SK-MEL-2): 99300 µM (inactive) | GI50 (SF-539): > 100 µM (inactive) | GI50 (LOX IMVI): 91800 µM (inactive) | GI50 (HOP-92): > 100 µM (inactive) | GI50 (OVCAR-5): > 100 µM (inactive) | GI50 (SR): > 100 µM (inactive) | GI50 (DU-145): > 100 µM (inactive) | GI50 (SF-268): > 100000 µM (inactive) | GI50 (HCT-116): 54600 µM (inactive) | GI50 (SF-295): > 100 µM (inactive) | GI50 (MDA-MB-231): > 100 µM (inactive) | GI50 (SK-MEL-5): 77300 µM (inactive) | GI50 (MOLT-4): > 100 µM (inactive) | GI50 (NCI-H226): 9.48 µM (inactive) | GI50 (NCI-H460): 42400 µM (inactive) | GI50 (M14): > 100 µM (inactive) | GI50 (A549): 42600 µM (inactive) | GI50 (SK-OV-3): > 100 µM (inactive) | GI50 (A498): 93.5 µM (inactive) | GI50 (MDA-N): 26400 µM (inactive) | GI50 (MCF7): > 100 µM (inactive) | GI50 (CAKI-1): 22500 µM (inactive) | GI50 (T47D): 48300 µM (inactive) | GI50 (K562): > 100 µM (inactive) | GI50 (SW-620): > 100 µM (inactive) | GI50 (786-0): > 100 µM (inactive) | GI50 (SNB-19): > 100 µM (inactive) | GI50 (Malme-3M): 0.296 µM (active) | GI50 (OVCAR-4): > 100 µM (inactive) | GI50 (UACC-62): > 100 µM (inactive) | GI50 (SNB-75): 24.4 µM (inactive) | GI50 (COLO 205): 44200 µM (inactive) | GI50 (TK-10): > 100 µM (inactive) | GI50 (KM12): 55200 µM (inactive) | GI50 (MDA-MB-435): > 100 µM (inactive) | GI50 (SK-MEL-28): > 100 µM (inactive) | GI50 (OVCAR-8): 83400 µM (inactive) | GI50 (HOP-62): > 100 µM (inactive) | GI50 (HL-60): 1.73 µM (inactive) | GI50 (BT-549): > 100 µM (inactive) | GI50 (SN12C): > 100 µM (inactive) | GI50 (PC-3): > 100 µM (inactive) | GI50 (HCT-15): > 100 µM | GI50 (Hs-578T): > 100 µM (inactive) | GI50 (OVCAR-3): > 100 µM (inactive)

CC(=O)OCC1(CNc2nc(N)ncc2C#N)CC(CCc2ccccc2)C1 (stereo not drawn)
GI50 (NCI-H23): 2.49 µM (inactive) | GI50 (IGROV-1): 21.4 µM (inactive) | GI50 (UACC-257): > 100 µM (inactive) | GI50 (ACHN): 28.4 µM (inactive) | GI50 (U-251): 31.3 µM (inactive) | GI50 (HT-29): > 100 µM (inactive) | GI50 (UO-31): 10.7 µM (inactive) | GI50 (EKVX): 6.01 µM (inactive) | GI50 (CCRF-CEM): 57 µM (inactive) | GI50 (RXF 393): 27.5 µM (inactive) | GI50 (NCI/ADR-RES): 10.3 µM (inactive) | GI50 (NCI-H522): 20.2 µM (inactive) | GI50 (SK-MEL-2): > 100 µM (inactive) | GI50 (SF-539): > 100 µM (inactive) | GI50 (LOX IMVI): 4.58 µM (inactive) | GI50 (HOP-92): 2.45 µM (inactive) | GI50 (OVCAR-5): > 100 µM (inactive) | GI50 (SR): 4.8 µM (inactive) | GI50 (DU-145): 32.1 µM (inactive) | GI50 (SF-268): > 100 µM (inactive) | GI50 (HCT-116): 5.43 µM (inactive) | GI50 (SF-295): 7.66 µM (inactive) | GI50 (MDA-MB-231): 10.4 µM (inactive) | GI50 (SK-MEL-5): 1.62 µM (inactive) | GI50 (MOLT-4): 2.89 µM (inactive) | GI50 (NCI-H226): 42 µM (inactive) | GI50 (NCI-H460): 26.8 µM (inactive) | GI50 (A549): 15.5 µM (inactive) | GI50 (A498): 21.9 µM (inactive) | GI50 (MDA-N): 28.6 µM (inactive) | GI50 (MCF7): 12 µM (inactive) | GI50 (CAKI-1): 4 µM (inactive) | GI50 (T47D): 13.3 µM (inactive) | GI50 (K562): 2.2 µM (inactive) | GI50 (SW-620): > 100 µM (inactive) | GI50 (786-0): 40.4 µM (inactive) | GI50 (Malme-3M): > 100 µM (inactive) | GI50 (OVCAR-4): > 100 µM (inactive) | GI50 (UACC-62): 46 µM (inactive) | GI50 (SNB-75): 27.4 µM (inactive) | GI50 (COLO 205): 75.3 µM (inactive) | GI50 (TK-10): > 10 µM (inactive) | GI50 (KM12): > 100 µM (inactive) | GI50 (MDA-MB-435): 26.2 µM (inactive) | GI50 (SK-MEL-28): > 100 µM (inactive) | GI50 (OVCAR-8): 50.2 µM (inactive) | GI50 (HOP-62): 14.4 µM (inactive) | GI50 (HL-60): 3.66 µM (inactive) | GI50 (BT-549): 87.1 µM (inactive) | GI50 (SN12C): > 100 µM (inactive) | GI50 (PC-3): > 100 µM (inactive) | GI50 (HCT-15): > 100 µM | GI50 (Hs-578T): 23.9 µM (inactive)
